pEC50: −log10 of the molar value.
What was measured:
naked oocytes (NO) [1] = assay: Agonistic oocyte assay, naked oocytes (NO / NkO test); type: cell-based, mouse; settings: for % GVBD + PB: NkO test
Method: (§1) An Agonistic Oocyte Assay Can be Performed as Follows: Oocytes were obtained from immature female mice (C57BL/6J×DBA/2J F1-hybrid, Bomholtgaard, Denmark) weighing 13-16 grams, that were kept under controlled temperature (20-22° C.), light (lights on 06.00-18.00) and relative humidity (50-70%). The mice received an intra-peritoneal injection of 0.2 ml gonadotropins (Gonal-F, Serono) containing 20 IU FSH and 48 hours later the animals were killed by cervical dislocation. The ovaries were dissected out and the oocytes were isolated in Hx-medium (see below) under a stereo microscope by manual rupture of the follicles using a pair of 27 gauge needles. Spherical oocytes displaying an intact germinal vesicle (hereinafter designated GV) were divided in cumulus enclosed oocytes (hereinafter designated CEO) and naked oocytes (hereinafter designated NO) and placed in α-minimum essential medium (α-MEM without ribonucleosides, Gibco BRL, Cat. No. 22561) supplemented with 3 mg/ml bovine serum albumin (BSA, Sigma Cat. No. A-7030), 5 mg/ml human serum albumin (HSA, Statens Seruminstitute, Denmark), 0.23 mM pyruvate (Sigma, Cat. No S-8636), 2 mM glutamine (Flow Cat. No. 16-801), 100 IU/ml penicillin and 100 μg/ml streptomycin (Flow, Cat No. 16-700). This medium was supplemented with 3 mM hypoxanthine (Sigma Cat. No. H-9377) and designated Hx-medium. The oocytes were rinsed three times in Hx-medium and oocytes of uniform size were divided into groups of CEO and NO. CEO and NO were cultured in 4-well multidishes (Nunclon, Denmark) in which each well contained 0.4 ml of Hx-medium. One control well (i.e., 35-45 oocytes cultured in identical medium with no addition of test compound) was always cultured simultaneously with 3 test wells (35-45 oocytes per well supplemented with test compound). The oocytes were cultured in a humidified atmosphere of 5% CO2 in air for 24 hours at 37° C. By the end of the culture period, the number of oocytes with germinal vesicle (hereinafter designated GV), GVBD, and polar body (herein designated PB), respectively, were counted using a stereomicroscope ([…] MZ 12). The percentage GVBD, defined as percentage of oocytes undergoing GVBD per total number of oocytes in that well, was calculated as: % GVBD=100×(number of GVBD+number of PB)/(total number oocytes). The % PB was defined as percentage of oocytes displaying one extruded polar body per total number of oocytes in that well. […] The relative effect of the tested compound is calculated as follows: Relative effect=100×((test GVBD %-negative control GVBD %)/(FF-MAS GVBD %-negative control GVBD %)).

[2] = system: cumulus enclosed oocytes (CEO); assay: Oocyte maturation assay, cumulus enclosed oocytes (CEO test); type: cell-based, mouse
Method: as §1

LXRα [3] = target: T1, LXRα (Homo sapiens, UniProt Q13133); assay: Agonist activity against LXRα
T1 sequence (Q13133 1-447): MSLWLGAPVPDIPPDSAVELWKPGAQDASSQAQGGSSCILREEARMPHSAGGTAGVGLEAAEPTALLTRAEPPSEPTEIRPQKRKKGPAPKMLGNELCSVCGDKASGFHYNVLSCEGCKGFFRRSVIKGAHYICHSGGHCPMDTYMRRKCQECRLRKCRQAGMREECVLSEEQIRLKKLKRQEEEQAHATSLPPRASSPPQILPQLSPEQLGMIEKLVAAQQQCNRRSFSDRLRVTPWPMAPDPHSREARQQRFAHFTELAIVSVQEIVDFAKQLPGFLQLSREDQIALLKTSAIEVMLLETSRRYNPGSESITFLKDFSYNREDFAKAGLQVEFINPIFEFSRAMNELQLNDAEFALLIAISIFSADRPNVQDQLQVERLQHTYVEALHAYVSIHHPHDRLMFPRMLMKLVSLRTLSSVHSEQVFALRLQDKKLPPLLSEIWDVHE

LXRβ [4] = target: T2, LXRβ (Homo sapiens, UniProt P55055); assay: Agonist activity against LXRβ
T2 sequence (P55055 1-460): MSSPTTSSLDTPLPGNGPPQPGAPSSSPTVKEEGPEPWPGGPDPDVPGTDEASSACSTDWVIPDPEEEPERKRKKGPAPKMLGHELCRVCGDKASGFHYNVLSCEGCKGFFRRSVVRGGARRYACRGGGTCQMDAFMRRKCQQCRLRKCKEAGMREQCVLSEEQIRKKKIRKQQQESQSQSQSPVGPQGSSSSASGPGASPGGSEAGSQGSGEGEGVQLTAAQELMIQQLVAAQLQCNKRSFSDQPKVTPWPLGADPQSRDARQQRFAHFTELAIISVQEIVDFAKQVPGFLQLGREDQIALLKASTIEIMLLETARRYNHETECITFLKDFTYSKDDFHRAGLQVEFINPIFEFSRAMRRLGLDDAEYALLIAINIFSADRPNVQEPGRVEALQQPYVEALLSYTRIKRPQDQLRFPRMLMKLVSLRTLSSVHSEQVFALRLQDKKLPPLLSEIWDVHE

PXR = target: T3, PXR (Homo sapiens, UniProt O75469); assay: Agonist activity against PXR
T3 sequence (O75469 1-434): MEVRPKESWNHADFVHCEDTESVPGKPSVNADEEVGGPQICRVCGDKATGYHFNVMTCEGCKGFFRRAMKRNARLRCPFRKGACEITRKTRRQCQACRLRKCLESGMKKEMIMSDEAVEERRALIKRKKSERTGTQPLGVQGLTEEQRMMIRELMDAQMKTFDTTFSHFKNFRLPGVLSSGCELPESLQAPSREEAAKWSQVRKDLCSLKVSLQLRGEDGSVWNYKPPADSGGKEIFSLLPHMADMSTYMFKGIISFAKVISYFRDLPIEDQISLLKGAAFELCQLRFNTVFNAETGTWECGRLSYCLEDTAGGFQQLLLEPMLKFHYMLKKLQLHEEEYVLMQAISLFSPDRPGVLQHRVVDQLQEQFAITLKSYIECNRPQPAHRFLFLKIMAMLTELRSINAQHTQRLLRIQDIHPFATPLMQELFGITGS

LXRα [5] = target: T1, LXRα; assay: Recruitment of co-factors to LXRα (HTRF assay); type: biochemical
From the text: (§2) The HTRF assay is described in Methods 25 (2001), 54-61. (HTRF is an abbreviation for homogeneous time-resolved fluorescence.)
(§3) The EC50 value is the dose which leads to a 50% saturation.

LXRβ [6] = target: T2, LXRβ; assay: Recruitment of co-factors to LXRβ (HTRF assay); type: biochemical
From the text: as §2, §3

FXRalpha = target: T4, FXRalpha (Homo sapiens, UniProt Q96RI1); assay: FFMAS on human FXRalpha (FIG. 2); type: biochemical
T4 sequence (Q96RI1 1-486): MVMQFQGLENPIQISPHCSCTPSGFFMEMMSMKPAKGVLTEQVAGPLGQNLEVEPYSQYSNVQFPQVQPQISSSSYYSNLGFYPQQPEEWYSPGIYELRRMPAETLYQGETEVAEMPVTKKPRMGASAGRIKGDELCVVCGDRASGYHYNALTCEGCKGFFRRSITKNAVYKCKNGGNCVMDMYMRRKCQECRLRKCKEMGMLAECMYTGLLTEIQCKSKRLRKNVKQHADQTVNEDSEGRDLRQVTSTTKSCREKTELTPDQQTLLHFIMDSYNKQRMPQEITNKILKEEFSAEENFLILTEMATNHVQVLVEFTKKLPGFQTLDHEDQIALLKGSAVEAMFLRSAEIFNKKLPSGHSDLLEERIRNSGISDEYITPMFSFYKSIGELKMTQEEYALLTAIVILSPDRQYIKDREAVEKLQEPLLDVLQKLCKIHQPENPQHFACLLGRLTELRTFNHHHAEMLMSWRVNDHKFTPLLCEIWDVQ

FXRbeta = assay: FFMAS on mouse FXRbeta (FIG. 3); type: biochemical
LXRα [7] = target: T1, LXRα; settings: Janowski et al. Nature 383 (1996); no direct binding explored; cited from earlier work
naked oocytes (NO) [8] = settings: Byskov et al. Nature 374 (1995); cited from earlier work
[9] = 10 μM, naked oocytes (NO) cultured in vitro for 24 hours in Hx-medium
[10] = dose which leads to 50% saturation

## O=C(O)Cc1cccc(OCCCN(Cc2cccc(C(F)(F)F)c2Cl)CC(c2ccccc2)c2ccccc2)c1 [90-8684, 2-(3-{3-[[2-chloro-3-(trifluoromethyl)benzyl](2,2-diphenylethyl)amino]propoxy}phenyl)acetic acid]
Naked oocytes (NO) [1]; Hx + 5 μM
  % GVBD + PB: 45 ± 5%
Naked oocytes (NO) [1]; Hx + 10 μM
  % GVBD + PB: 49 ± 8%
Naked oocytes (NO) [1]; Hx + 15 μM
  % GVBD + PB: 54 ± 5%
Naked oocytes (NO) [1]; mouse oocytes, NkO and CEO tests
  Meiosis-inducing effect in an oocyte maturation assay: dose-dependent maturation of the oocytes
[2]; Hx + 2.5 μM
  % GVBD + PB: 69 ± 3%
[2]; Hx + 5 μM
  % GVBD + PB: 71 ± 6%
[2]; Hx + 10 μM
  % GVBD + PB: 86 ± 7%
LXRα [3]
  Activity against LXRα: showed activity
LXRβ [4]
  Activity against LXRβ: showed activity
PXR
  Activity against PXR: showed activity

## CC(C)=CCC[C@@H](C)[C@H]1CC=C2C3=C(CC[C@@]21C)[C@@]1(C)CC[C@H](O)C(C)(C)[C@@H]1CC3 [FF-MAS, 4,4-dimethyl-5α-cholesta-8,14,24-triene-3β-ol]
Naked oocytes (NO) [1]; 10 μM, NO, 24 hours, indexed: control 0, FF-MAS 100
  Mean Relative Effect: 100
Naked oocytes (NO) [1]; [9]
  Mean % GVBD: 86.1%
  Mean % PB: 28.5%
Naked oocytes (NO) [1]; Hx + 10 μM
  % GVBD + PB: 90 ± 8%
[2]; Hx + 10 μM
  % GVBD + PB: 78 ± 9%
LXRα [5]; FIGS. 1A and 1B
  Behaviour on human LXRs (LXRα): agonist
LXRα [5]; [10]
  pEC50: ~7.17
LXRβ [6]; FIGS. 1A and 1B
  Behaviour on human LXRs (LXRβ): agonist
LXRβ [6]; [10]
  pEC50: ~7.68
FXRalpha
  Behaviour on human FXRalpha: partial agonist
FXRbeta
  Behaviour on mouse FXRbeta: partial agonist
LXRα [7]
  Transactivation of LXRα: able to transactivate LXRα
Naked oocytes (NO) [8]
  Induction of meiosis in NO in vitro: induce meiosis

From patent publication US20060078874A1, “Use of nuclear hormone receptors” (Novo Nordisk A/S, priority 2002, published 2006)
